Results as given in patent US10988465B2, “CXCR4 inhibitors and uses thereof” (X4 Pharmaceuticals, Inc., priority 2016, dated 2021).

Columns and labels:
[1] = target: T1, CXCR-4 transfected U87 cell line (U87.CXCR4) (Homo sapiens, UniProt P61073); assay: Intracellular CXCL-12-induced calcium mobilization assay (FLIPR); format: cell-based; conditions: U87.CXCR4 cells; CXCL-12 25-50 ng/mL; compound added 15 min before; read-out: IC50 CXCL-12 Ca^2+ flux U87.CXCR4+
T1 construct: expressed in transfected cells; host or cells: U87 (U87.CXCR4)
T1 sequence (P61073 whole entry): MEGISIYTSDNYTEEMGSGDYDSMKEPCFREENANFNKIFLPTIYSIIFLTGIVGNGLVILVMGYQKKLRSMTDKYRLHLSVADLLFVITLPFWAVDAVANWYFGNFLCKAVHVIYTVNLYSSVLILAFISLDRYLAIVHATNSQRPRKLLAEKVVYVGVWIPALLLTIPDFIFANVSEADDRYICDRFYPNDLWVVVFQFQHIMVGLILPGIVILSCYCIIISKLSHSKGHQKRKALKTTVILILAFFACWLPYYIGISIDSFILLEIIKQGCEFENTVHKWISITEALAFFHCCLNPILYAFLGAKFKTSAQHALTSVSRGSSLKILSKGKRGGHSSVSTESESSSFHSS
Description: Example 36: REGA Screening Assay
Intracellular CXCL-12-Induced Calcium Mobilization Assay
Intracellular calcium mobilization induced by chemokines or chemokine-derived peptides were evaluated using a calcium responsive fluorescent probe and a FLIPR system. The CXCR-4 transfected U87 cell line (U87.CXCR4) cells were seeded in gelatine-coated black-wall 96-well plates at 20,000 cells per well and incubated for 12 hours. Cells were then loaded with the fluorescent calcium probe Fluo-2 acetoxymethyl at 4 μM final concentration in assay buffer (Hanks' balanced salt solution with 20 mM HEPES buffer and 0.2% bovine serum albumin, pH 7.4) for 45 min at 37° C. The intracellular calcium mobilization induced by the CXCL-12 (25-50 ng/mL) was then measured at 37° C. by monitoring the fluorescence as a function of time in all the wells simultaneously using a fluorometric imaging plate reader (FLIPR Tetra, Molecular Devices).

[2] = target: T2, Jurkat cells expressing CXCR4 (Homo sapiens, UniProt P61073); assay: Chemokine (CXCL12-AF647) binding inhibition assay; conditions: CXCL12-AF647 25 ng/mL, read-out: IC50 CXCL-12 binding Jurkat
T2 construct: endogenous in cells; host or cells: Jurkat
T2 sequence (P61073 whole entry): as above
Description: Chemokine (CXCL12-AF647) Binding Inhibition Assay
Jurkat cells expressing CXCR4 were washed once with assay buffer (Hanks' balanced salt solution with 20 mM HEPES buffer and 0.2% bovine serum albumin, pH 7.4) and then incubated for 15 min at room temperature with the test compounds diluted in assay buffer at dose-dependent concentrations. Subsequently, CXCL12-AF647 (25 ng/mL) was added to the compound-incubated cells. The cells were incubated for 30 min at room temperature. Thereafter, the cells were washed twice in assay buffer, fixed in 1% paraformaldehyde in PBS, and analyzed on the FL4 channel of a FACSCalibur flow cytometer equipped with a 635-nm red diode laser (Becton Dickinson, San Jose, Calif., USA).
The percentages of inhibition of CXCL12-AF647 binding were calculated according to the formula: [1−((MFI−MFINC)/(MFIPC−MFINC))]×100 where MFI is the mean fluorescence intensity of the cells incubated with CXCL12-AF647 in the presence of the inhibitor, MFINC is the mean fluorescence intensity measured in the negative control (i.e., autofluorescence of unlabeled cells), and MFIPC is the mean fluorescence intensity of the positive control (i.e., cells exposed to CXCL12-AF647 alone).

[3] = in vitro; conditions: human, Caco-2, pH 7.4
Description: Example 37: Caco-2 Permeability Assay
The goal of this assay was to evaluate the intestinal absorption potential of drug candidates using Caco-2 cell lines.
HBSS buffer with 0.3% DMSO and 5 μM LY: add 150 μL DMSO and 50 μL LY (5 mM) into 50 ml HBSS buffer (pH 7.4).
HBSS buffer with 0.1% DMSO and 5 μM LY: add 50 μL DMSO and 50 μL LY (5 mM) into 50 mL HBSS buffer (pH 7.4).
HBSS buffer with 0.3% DMSO: add 150 μL DMSO into 50 ml HBSS buffer (pH 7.4).
HBSS buffer with 0.1% DMSO: add 50 μL DMSO into 50 ml HBSS buffer (pH 7.4).
Prepare HBSS buffer with 0.4% DMSO: add 200 μL DMSO into 50 ml HBSS buffer (pH 7.4).
Prepare HBSS buffer with 0.4% DMSO and 5 μM LY: add 200 μL DMSO and 50 μL LY (5 mM) into 50 ml HBSS buffer (pH 7.4).
4. Measure TEER Take cell culture plate out of incubator, wash the cell monolayers with HBSS buffer, and then measure TEER values at Rm temperature. 5. Centrifuge Centrifuge the compound solution (from step 3) at 4000 rpm for 5 min before loading to donor chambers. 6. Dosing Add solution based on the volumes listed in the following table (make sure to take extra 100 μL of donor sample for T0 as Backup).
7. Apical LYT0 samples To determine LY concentration in the apical chember, take 100 μL sample from apical chambers into an opaque plate for LYT0. 8. Prewarm Prewarm apical and basolateral plates at 37° C. for about 5 min, then begin transport by placing the apical plate onto basolateral plate. 9. Incubation Keep the plates in incubator at 37° C. for 90 min. 10. Standard Curve preparation
11. Transport termination Separate the apical plate from the basolateral plate after 90-min incubation.
Receiver sample: 60 μL of receiver sample+60 μL ACN with IS (Osalmid or Imipramine)
Study details: Test concentration 10 μM
Test systems: Caco-2/HBSS solution
Incubation conditions: 0, 90 min at 37° C.
Sample size: Duplicates (n=2)
Bioanalytical method: LC-MS/MS
For Millicell-24 Cell Culture Plates: surface area of the membrane=0.7 cm^2, VA=0.8 mL (A-to-B) or 0.4 mL (B-to-A)
1. Papp values were calculated based on calculated concentrations.
The compound numbers correspond to the compound numbers in Table 1.

Row | Compound | IC50 [1] | IC50 [2] | Papp A→B at 90 min, 10 μM [3] | Papp B→A at 90 min, 10 μM [3] | efflux ratio at 90 min, 10 μM [3]
1 | Cc1cccnc1[C@@H]1CCC[C@H](c2nc3cccc(N4CCN(C(C)C)CC4)c3[nH]2)N1C [I-75] | 0.01 to 100 nM | 0.01 to 100 nM | 10 to 30 ×10⁻⁶ cm/s | 0.1 to 10 ×10⁻⁶ cm/s | 0.1 to 10
2 | CN1CCC(n2c([C@H]3CCC[C@@H](c4ccccn4)N3)nc3ccccc32)CC1 [I-154] | 100 to 1000 nM | 0.01 to 100 nM | 10 to 30 ×10⁻⁶ cm/s | 10 to 30 ×10⁻⁶ cm/s | 0.1 to 10
3 | Cc1cccnc1[C@@H]1CCC[C@H](c2nc3cccc(N4CCN5CCCC5C4)c3[nH]2)N1 (some centres unmarked) [I-126] | 0.01 to 100 nM | 0.01 to 100 nM | 0.1 to 10 ×10⁻⁶ cm/s | 10 to 30 ×10⁻⁶ cm/s | 0.1 to 10
4 | Cc1cccnc1[C@@H]1CCC[C@H](c2nc3cccc(N4CC5CCC(C4)N5C)c3[nH]2)N1 [I-118] | 0.01 to 100 nM | 0.01 to 100 nM | 0.1 to 10 ×10⁻⁶ cm/s | > 30 ×10⁻⁶ cm/s | 10 to 30
5 | Cc1cccnc1[C@@H]1CCC[C@H](c2nc3c(N4CCN(C)CC4)cccc3n2C)N1 [I-141] | ≥ 1000 nM | ≥ 1000 nM | 10 to 30 ×10⁻⁶ cm/s | 10 to 30 ×10⁻⁶ cm/s | 0.1 to 10
6 | CNCCCn1c([C@H]2CCC[C@@H](c3ncccc3C)N2C)nc2ccccc21 [I-16, N-methyl-3-(2-((2R,6S)-1-methyl-6-(3-methylpyridin-2-yl)piperidin-2-yl)-1H-benzo[d]imidazol-1-yl)propan-1-amine] | 0.01 to 100 nM | 0.01 to 100 nM | 0.1 to 10 ×10⁻⁶ cm/s | 10 to 30 ×10⁻⁶ cm/s | > 30
7 | CN1CCC(n2c([C@H]3CCC[C@@H](c4ncccc4Cl)N3)nc3ccccc32)CC1 [I-135] | 0.01 to 100 nM | 0.01 to 100 nM | 10 to 30 ×10⁻⁶ cm/s | 10 to 30 ×10⁻⁶ cm/s | 0.1 to 10
8 | Cc1cccnc1[C@@H]1CCC[C@H](c2nc3ccccc3n2C2CCN(C)CC2)N1C [I-130] | 0.01 to 100 nM | 0.01 to 100 nM | 10 to 30 ×10⁻⁶ cm/s | 10 to 30 ×10⁻⁶ cm/s | 0.1 to 10
9 | Cc1cccnc1[C@@H]1CCC[C@H](c2nc3ccccc3n2CCCN(C)C)N1 [I-155] | ≥ 1000 nM | 0.01 to 100 nM | 0.1 to 10 ×10⁻⁶ cm/s | > 30 ×10⁻⁶ cm/s | 0.1 to 10
10 | Cc1cccnc1[C@@H]1CCC[C@H](c2nc3cccc(N4CC5CC4CN5C)c3[nH]2)N1C (some centres unmarked) [I-110] | 100 to 1000 nM | 0.01 to 100 nM | 0.1 to 10 ×10⁻⁶ cm/s | 10 to 30 ×10⁻⁶ cm/s | 0.1 to 10
11 | Cc1cccnc1[C@@H]1CCC[C@H](c2nc3cccc(N4CCN(C)CC4)c3[nH]2)N1C (single isomer, unassigned) [I-3a] | 0.01 to 100 nM | 0.01 to 100 nM | 0.1 to 10 ×10⁻⁶ cm/s | 0.1 to 10 ×10⁻⁶ cm/s | 
12 | Cc1cccnc1[C@@H]1CCC[C@H](c2nc3cccc(N4CC5CC(C4)N5C)c3[nH]2)N1C [I-109] | 100 to 1000 nM | 0.01 to 100 nM | 0.1 to 10 ×10⁻⁶ cm/s | 10 to 30 ×10⁻⁶ cm/s | 0.1 to 10
